Experimental data published in PubChem BioAssay (NCI).
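48-hour exposure; five concentrations; linearly interpolated endpoints. At the GI50, growth is halved. TGI marks complete inhibition of growth.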

Experiments:
Assay in all cases: NCI anticancer screen, dose series, 48 h
[1] = tested on: HS 578T breast
[2] = tested on: MDA-MB-435
[3] = tested on: SK-MEL-5 melanoma
[4] = tested on: HCC-2998 colon
[5] = tested on: IGROV1 ovarian
[6] = tested on: A498 renal
[7] = tested on: SNB-19 CNS
[8] = tested on: CCRF-CEM leukemia
[9] = tested on: SK-OV-3 ovarian
[10] = tested on: MDA-MB-231 breast

SMILES | GI50 [1] [µM] | TGI [1] [µM] | GI50 [2] [µM] | TGI [2] [µM] | GI50 [3] [µM] | TGI [3] [µM] | GI50 [4] [µM] | TGI [4] [µM] | GI50 [5] [µM] | TGI [5] [µM] | GI50 [6] [µM] | TGI [6] [µM] | GI50 [7] [µM] | TGI [7] [µM] | GI50 [8] [µM] | TGI [8] [µM] | GI50 [9] [µM] | TGI [9] [µM] | GI50 [10] [µM] | TGI [10] [µM]
CCCCCCCCCCC[C@@H](C[C@H]1OC(=O)[C@H]1CCCCCC)OC(=O)[C@@H](CC(C)C)NC=O | 3.81 | 40.8 | 5.77 | 60.3 | 2.8 | 10.4 | 5.31 | 27.3 | 7.62 | 55.7 | 4.64 | 29.9 | 5.02 | 25.4 | 1.31 | 76.4 | 10.1 | 62.8 | 1.53 | 5.45
CNC(=O)c1cc(Oc2ccc3nc(N[C@@H]4CCCC[C@H]4O)sc3c2)ccn1 | > 69.9 | > 100 | 32.6 | > 100 | 18.1 | 38.1 | > 100 | > 100 | > 77.2 | > 100 | > 40.5 | > 100 | > 100 | > 100 | 43.1 | > 100 | > 100 | > 100 | 82.2 | > 100
CC[C@H]1CN(C)[C@H]2Cc3c([nH]c4ccccc34)C(=O)C[C@H]1C2C(=O)OC (some centres undefined) |  | > 100 |  | > 100 |  | > 100 |  | > 100 |  | > 100 |  | > 100 |  | > 100 |  | > 100 |  | > 100 |  | > 100
O=C(c1nn(-c2ccc(Cl)cc2)cc1O)n1nc(C(F)(F)F)cc1-c1ccccc1 | 0.556 | > 100 | 3.38 | > 100 | 2.07 | 16.7 | 9.4 | > 100 | 0.921 | > 100 | 5.93 | > 73.9 | 3.98 | > 100 | 0.738 | > 33.8 | 2.53 | > 100 | > 26.3 | > 100
O=C(Nc1ccc(Nc2ccncc2)cc1)c1ccc(Nc2ccnc3ccc([N+](=O)[O-])cc23)cc1[N+](=O)[O-] | 0.691 |  | 23.3 | > 100 | 25.8 | > 100 | 32.9 | > 100 | 14.1 | > 83.7 | 24.2 | > 62.2 | 5.61 | > 100 | 18.6 | > 50.6 | 19.3 | 40 | 24.6 | > 61.8
OCCn1cc(-c2cnc3nnn(Cc4ccc5ncccc5c4)c3n2)cn1 | > 100 | > 100 | > 100 | > 100 | > 100 | > 100 | > 100 | > 100 | > 100 | > 100 | 34.3 | > 100 | > 100 | > 100 | > 100 | > 100 | > 100 | > 100 | > 100 | > 100
Fc1cccc(Cl)c1Cn1c(-c2c(F)cccc2Cl)nc2ccccc21 | 21.6 | 65.3 | 20.1 | 61.7 | 11.6 | 29.8 | 2.31 | 9.87 | 21.9 | > 100 | 19.2 | 36.6 | 18.4 | 48.1 | 26.2 | > 100 | 18.4 | 44.6 | 13.2 | 29.3
